pKi: −log10 of the molar value. Active and inactive are the calls of the source. No cut-off for these calls is given here.
Assays:
[1] = target: T1, S-methyl-5'-thioadenosine phosphorylase (Homo sapiens, UniProt Q13126); test: Inhibition of His-tagged human MTAP
T1 sequence (Q13126 whole entry): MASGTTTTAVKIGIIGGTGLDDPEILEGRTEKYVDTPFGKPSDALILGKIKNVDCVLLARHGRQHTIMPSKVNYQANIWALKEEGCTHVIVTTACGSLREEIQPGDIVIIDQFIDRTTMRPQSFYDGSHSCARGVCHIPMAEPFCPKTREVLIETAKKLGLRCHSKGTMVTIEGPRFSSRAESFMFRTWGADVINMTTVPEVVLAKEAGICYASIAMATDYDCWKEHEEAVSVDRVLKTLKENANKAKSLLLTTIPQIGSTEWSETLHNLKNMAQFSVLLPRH

[2] = target: T2, S-methyl-5'-thioadenosine phosphorylase (Homo sapiens) (UniProt Q13126); test: Inhibition of His-tagged human MTAP at 2.5 uM
T2 sequence (whole entry): T1 sequence (Q13126 whole entry)

Row | SMILES | pKi [1] | inhibition [2]
1 | Nc1ncnc2c(CN3C[C@H](CCCSCc4ccccc4)[C@@H](O)C3)c[nH]c12 (racemic) | 7.15 | 
2 | CC[C@H]1CN(Cc2c[nH]c3c(N)ncnc23)C[C@@H]1O | 9.15 | 
3 | Nc1ncnc2c(CN3C[C@H](C4CCCC4)[C@@H](O)C3)c[nH]c12 (racemic) | 8.59 | 
4 | CC[C@H]1CN(Cc2c[nH]c3c(N)ncnc23)C[C@H]1O (racemic) | 7.47 | 
5 | C=CC[C@H]1CN(Cc2c[nH]c3c(N)ncnc23)C[C@@H]1O (racemic) | 8.52 | 
6 | Nc1ncnc2c(CN3C[C@H](c4ccccc4)[C@@H](O)C3)c[nH]c12 (racemic) | 8.10 | 
7 | C#C[C@H]1CN(Cc2c[nH]c3c(N)ncnc23)C[C@@H]1O (racemic) | 7.51 | 
8 | Nc1ncnc2c(CN3C[C@H](CC4CCCCC4)[C@@H](O)C3)c[nH]c12 (racemic) | 7.85 | 
9 | Nc1ncnc2c(CN3C[C@H](c4cn(Cc5ccccc5)nn4)[C@@H](O)C3)c[nH]c12 (racemic) |  | inactive
10 | CC(C)C[C@H]1CN(Cc2c[nH]c3c(N)ncnc23)C[C@@H]1O (racemic) | 8.77 | 
11 | Nc1ncnc2c(CN3C[C@H](C4CC4)[C@@H](O)C3)c[nH]c12 (racemic) | 8.68 | 
12 | C=C[C@H]1CN(Cc2c[nH]c3c(N)ncnc23)C[C@@H]1O (racemic) | 8.49 | 
13 | Nc1ncnc2c(CN3C[C@H](O)[C@@H](n4ccnn4)C3)c[nH]c12 (racemic) | 7.23 | 
